How the values were obtained:
human plasma factor Xa = biological target: T1, human plasma factor Xa (Homo sapiens, UniProt P01008); assay: Antithrombin-dependent factor Xa inhibition (residual factor Xa activity, Spectrozyme fXa substrate); type: biochemical; conditions: tested at 1-50 μM
T1 construct: 10 nM human plasma factor Xa; from tissue; host or cells: human plasma
Method: (§1) Methods. To assay anticoagulant activity, compounds were incubated with 1 μM human plasma antithrombin and 10 nM human plasma factor Xa in 20 mM sodium phosphate buffer, pH 6.0, at 25° C. for 10 min. After incubation, residual factor Xa activity was measured spectrophotometrically using Spectrozyme fXa substrate. From the decrease in residual factor Xa activity as a function of sulfated bis-cyclic agent concentration, the anticoagulant potential of each sample was calculated.
(§2) A key test of in vitro anticoagulant activity is the inhibition of Factor Xa., a critical enzyme involved in blood clotting.
(§3) Each peak was isolated and its factor Xa inhibition potential was determined at concentrations in the range of 1-50 μM.

[1] = test system: T2, human plasma factor Xa (Homo sapiens); assay: as above; type: biochemical; conditions: 10 μM sulfated compound; 1 μM human plasma antithrombin, 10 nM human plasma factor Xa, pH 6.0, 25° C., 10 min
T2 construct: 10 nM human plasma factor Xa; from tissue; host or cells: human plasma
Method: as §1, §2, §3

T2 sequence (P01008 33-464): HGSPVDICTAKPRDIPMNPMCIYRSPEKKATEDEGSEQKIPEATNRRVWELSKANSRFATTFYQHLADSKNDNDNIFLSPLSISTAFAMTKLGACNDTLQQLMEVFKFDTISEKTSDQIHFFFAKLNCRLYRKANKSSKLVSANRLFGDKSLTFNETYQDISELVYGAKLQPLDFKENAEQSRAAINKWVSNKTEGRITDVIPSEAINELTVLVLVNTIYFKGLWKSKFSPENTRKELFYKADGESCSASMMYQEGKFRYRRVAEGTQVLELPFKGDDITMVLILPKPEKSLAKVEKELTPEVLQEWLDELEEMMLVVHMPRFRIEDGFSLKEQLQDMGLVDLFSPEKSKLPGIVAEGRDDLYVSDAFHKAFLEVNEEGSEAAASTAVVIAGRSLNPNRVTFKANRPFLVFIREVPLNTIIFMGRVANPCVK
T1 sequence (P01008 33-464): as above

Substance: (3S)-6,7-bis-sulfonato-2-(3,4,5-tris-sulfonato-benzoyl)-1,2,3,4-tetrahydro-isoquinoline-3-carboxylate [Peak P1]
- acceleration of the inhibition of human factor Xa by human plasma antithrombin (human plasma factor Xa): greatly accelerates the inhibition
- Inhibition (Factor Xa inhibition by sulfated compounds) [1]: 86%
